Data published in BindingDB's records for doi:10.1124/jpet.301.2.527 (Mercer University, 2002).

Columns and labels:
[1] = biological target: Sodium-dependent serotonin transporter (Rattus norvegicus, UniProt P31652)
[2] = biological target: Sodium-dependent dopamine transporter (Rattus norvegicus, UniProt P23977)
Sequence of Sodium-dependent dopamine transporter (P23977 whole entry): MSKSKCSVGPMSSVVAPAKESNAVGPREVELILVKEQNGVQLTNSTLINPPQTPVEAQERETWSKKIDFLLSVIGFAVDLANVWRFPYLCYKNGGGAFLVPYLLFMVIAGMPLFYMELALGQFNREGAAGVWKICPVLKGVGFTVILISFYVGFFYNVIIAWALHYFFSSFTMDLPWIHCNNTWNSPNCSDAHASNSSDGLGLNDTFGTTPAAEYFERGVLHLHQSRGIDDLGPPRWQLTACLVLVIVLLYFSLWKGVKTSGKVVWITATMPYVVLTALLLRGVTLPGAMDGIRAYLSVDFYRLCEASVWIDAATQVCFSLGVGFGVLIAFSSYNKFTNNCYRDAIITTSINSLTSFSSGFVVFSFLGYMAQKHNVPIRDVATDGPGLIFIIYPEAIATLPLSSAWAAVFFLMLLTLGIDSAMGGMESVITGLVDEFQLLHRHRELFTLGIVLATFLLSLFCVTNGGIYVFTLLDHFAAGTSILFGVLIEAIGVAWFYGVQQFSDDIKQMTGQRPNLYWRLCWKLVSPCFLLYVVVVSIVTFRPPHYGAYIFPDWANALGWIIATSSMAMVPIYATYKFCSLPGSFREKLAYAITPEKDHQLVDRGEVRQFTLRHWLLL

Sequence of Sodium-dependent serotonin transporter (P31652 whole entry): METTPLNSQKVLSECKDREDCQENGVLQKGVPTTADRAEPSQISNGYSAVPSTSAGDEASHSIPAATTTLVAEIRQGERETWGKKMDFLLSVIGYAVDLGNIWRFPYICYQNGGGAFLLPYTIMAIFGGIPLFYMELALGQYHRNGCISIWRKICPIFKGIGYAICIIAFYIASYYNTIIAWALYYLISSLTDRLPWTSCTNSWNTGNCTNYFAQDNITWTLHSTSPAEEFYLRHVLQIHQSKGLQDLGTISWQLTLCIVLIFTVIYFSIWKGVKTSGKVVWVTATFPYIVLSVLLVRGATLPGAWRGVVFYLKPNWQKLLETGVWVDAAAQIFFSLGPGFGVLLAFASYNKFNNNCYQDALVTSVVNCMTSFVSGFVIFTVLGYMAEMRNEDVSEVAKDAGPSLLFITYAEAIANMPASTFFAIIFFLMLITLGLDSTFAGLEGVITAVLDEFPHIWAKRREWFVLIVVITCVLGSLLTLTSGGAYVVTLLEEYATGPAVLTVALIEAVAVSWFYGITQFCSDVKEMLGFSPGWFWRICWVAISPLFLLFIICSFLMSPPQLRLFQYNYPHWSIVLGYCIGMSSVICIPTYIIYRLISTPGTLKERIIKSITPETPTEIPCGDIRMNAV

SMILES	Ki [1] [nM]	Ki [2] [nM]
COC(=O)[C@H](c1cccc(Cl)c1)[C@@H]1CCCCN1C [3CTMPNMe]	> 10000	160
CCCCN1CCCC[C@H]1[C@H](COC)c1ccccc1 [TROMeNBn]	166	17.8
COC(=O)[C@H](c1cccc(Cl)c1)[C@@H]1CCCCN1 [3CTMP]	> 10000	5.1
COC(=O)[C@H](c1ccc(C)cc1)[C@@H]1CCCCN1C [4MeTMPNMe]	1110	140
COC(=O)[C@H](c1ccc(F)cc1)[C@@H]1CCCCN1 [4FTMP]	> 10000	35
COC(=O)[C@H](c1ccc(Cl)c(Cl)c1)[C@@H]1CCCCN1 [3,4CTMP]		5.3
COC(=O)[C@H](c1ccc(N)cc1)[C@@H]1CCCCN1 [4ATMP]	> 10000	34.5
COC(=O)[C@H](c1ccc(C)cc1)[C@@H]1CCCCN1 [4MeTMP]	> 10000	33
COC(=O)[C@H](c1ccccc1)[C@@H]1CCCCN1C [TMPNMe]	> 10000	499
CCCCN1CCCC[C@H]1[C@H](CO)c1ccccc1 [TROHNBn]	204	23.7
COC(=O)[C@H](c1ccccc1)[C@@H]1CCCCN1 [TMP]	> 10000	
